Measurements: patent US20060115865A1, “Lamotrigine analogs” (priority 2004, published 2006)
Like-named read-outs stand apart in the source and are kept apart here. Values belong to the compound of their own block, whether it stands above or below them.

Columns and labels:
[1] = test system: anti-lamotrigine antibody; assay: Cross-reactivity of polyclonal antibody with lamotrigine metabolites spiked into human serum; type: binding; details: metabolite at 500 μg/mL spiked into human serum; polyclonal antisera
Description: A polyclonal antisera is obtained and an assay is performed in order to determine the amount of cross-reactivity of the polyclonal antibody with lamotrigine and lamotrigine metabolites. A known amount of lamotrigine is used to react with an anti-lamotrigine antibody prepared in accordance with the present invention. The known concentration of lamotrigine is used to calculate the amount of cross-reactivity between the antibody preparation and the metabolites as follows: N-methyl (29); N-oxide (30); and N-2 gluronide (31). The percent of cross-reactivity equals 100 times the observed concentration of lamotrigine in μg/mL, which is then divided by the concentration of added metabolites in μg/mL. No cross-reactivity is observed in specimens containing those metabolites. High concentrations of these compounds are spiked into human serum and tested as samples. The metabolites are assayed and compared to control serum (no lamotrigine). Cross reactivity is calculated using the following equation: [formula]

[2] = Solubility of 74W86 in common solvents; type: physicochemical; details: most common solvents
[3] = cited from earlier work
[4] = responders (>50% seizure reduction)

Compound: C[n+]1nc(-c2cccc(Cl)c2Cl)c(N)nc1N [N-2 methyl]
- cross-reactivity [1]: do not have any cross-reactivity

- solubility [2]: poor solubility in most common solvents
Compound: Nc1nnc(-c2cccc(Cl)c2Cl)c(NC(=O)CCC(=O)O)n1 [74W86]

Compound: Nc1nc(N)[n+]([O-])nc1-c1cccc(Cl)c1Cl [N-2 oxide]
- cross-reactivity [1]: < 3%

Compound: Nc1nnc(-c2cccc(Cl)c2Cl)c(N)n1 [lamotrigine, 3,5-diamino-6-(2,3-dichlorophenyl)-1,2,4-triazine]
- lamotrigine concentration, range ([3]; patients with side effects): 31 to 60 µmol/L
- median lamotrigine concentration ([3]; patients with side effects): 62 µmol/L
- lamotrigine concentration, range [3, 4]: 8 to 60 µmol/L
- median lamotrigine concentration [3, 4]: 31 µmol/L
